Experimental data as given in patent publication EP0522502A1, “Inhibitors of sucrase activity from tea” (MITSUI NORIN CO., LTD., priority 1991, dated 1993).

How the values were obtained:
Sucrase = target: T1, Sucrase (Rattus norvegicus, UniProt P23739); experiment: Sucrase activity inhibition (Dahlquist enzyme preparation, Bernfeld sugar determination); type: biochemical, Wistar rats; conditions: for Inhibition (%): final concentration of 5x10⁻⁴ M, substrate 60mM sucrose solution, 37 °C for 15 minutes, control (distilled water) = 100% activity; for sucrase activity inhibiting capacity: verbal summary of Table 1, 5x10⁻⁴ M
T1 construct: Sucrase was prepared from the mucous membrane of the small intestines of Wistar rats; from tissue; host or cells: mucous membrane of the small intestine of Wistar rats
Procedure: The value thus measured was converted into the amount of decomposed sucrose, and the reaction speed was calculated using a standard method. The reaction speed of the control case (where distilled water was added instead of the sample solution) was also obtained in the same manner. Sucrase activity in the control case was calculated to be 100%. The percentage inhibition of the samples, each at a final concentration of 5x10⁻⁴ M, were obtained.

male ICR mice = experiment: Acute toxicity test (LD50 by Van der Waerden method); type: in vivo; conditions: intraabdominal administration
Procedure: An acute toxicity test of the sucrase activity inhibitor of the present invention was carried out using male ICR mice. LD₅₀ was calculated by the Van der Waerden method.

T1 sequence (P23739 whole entry): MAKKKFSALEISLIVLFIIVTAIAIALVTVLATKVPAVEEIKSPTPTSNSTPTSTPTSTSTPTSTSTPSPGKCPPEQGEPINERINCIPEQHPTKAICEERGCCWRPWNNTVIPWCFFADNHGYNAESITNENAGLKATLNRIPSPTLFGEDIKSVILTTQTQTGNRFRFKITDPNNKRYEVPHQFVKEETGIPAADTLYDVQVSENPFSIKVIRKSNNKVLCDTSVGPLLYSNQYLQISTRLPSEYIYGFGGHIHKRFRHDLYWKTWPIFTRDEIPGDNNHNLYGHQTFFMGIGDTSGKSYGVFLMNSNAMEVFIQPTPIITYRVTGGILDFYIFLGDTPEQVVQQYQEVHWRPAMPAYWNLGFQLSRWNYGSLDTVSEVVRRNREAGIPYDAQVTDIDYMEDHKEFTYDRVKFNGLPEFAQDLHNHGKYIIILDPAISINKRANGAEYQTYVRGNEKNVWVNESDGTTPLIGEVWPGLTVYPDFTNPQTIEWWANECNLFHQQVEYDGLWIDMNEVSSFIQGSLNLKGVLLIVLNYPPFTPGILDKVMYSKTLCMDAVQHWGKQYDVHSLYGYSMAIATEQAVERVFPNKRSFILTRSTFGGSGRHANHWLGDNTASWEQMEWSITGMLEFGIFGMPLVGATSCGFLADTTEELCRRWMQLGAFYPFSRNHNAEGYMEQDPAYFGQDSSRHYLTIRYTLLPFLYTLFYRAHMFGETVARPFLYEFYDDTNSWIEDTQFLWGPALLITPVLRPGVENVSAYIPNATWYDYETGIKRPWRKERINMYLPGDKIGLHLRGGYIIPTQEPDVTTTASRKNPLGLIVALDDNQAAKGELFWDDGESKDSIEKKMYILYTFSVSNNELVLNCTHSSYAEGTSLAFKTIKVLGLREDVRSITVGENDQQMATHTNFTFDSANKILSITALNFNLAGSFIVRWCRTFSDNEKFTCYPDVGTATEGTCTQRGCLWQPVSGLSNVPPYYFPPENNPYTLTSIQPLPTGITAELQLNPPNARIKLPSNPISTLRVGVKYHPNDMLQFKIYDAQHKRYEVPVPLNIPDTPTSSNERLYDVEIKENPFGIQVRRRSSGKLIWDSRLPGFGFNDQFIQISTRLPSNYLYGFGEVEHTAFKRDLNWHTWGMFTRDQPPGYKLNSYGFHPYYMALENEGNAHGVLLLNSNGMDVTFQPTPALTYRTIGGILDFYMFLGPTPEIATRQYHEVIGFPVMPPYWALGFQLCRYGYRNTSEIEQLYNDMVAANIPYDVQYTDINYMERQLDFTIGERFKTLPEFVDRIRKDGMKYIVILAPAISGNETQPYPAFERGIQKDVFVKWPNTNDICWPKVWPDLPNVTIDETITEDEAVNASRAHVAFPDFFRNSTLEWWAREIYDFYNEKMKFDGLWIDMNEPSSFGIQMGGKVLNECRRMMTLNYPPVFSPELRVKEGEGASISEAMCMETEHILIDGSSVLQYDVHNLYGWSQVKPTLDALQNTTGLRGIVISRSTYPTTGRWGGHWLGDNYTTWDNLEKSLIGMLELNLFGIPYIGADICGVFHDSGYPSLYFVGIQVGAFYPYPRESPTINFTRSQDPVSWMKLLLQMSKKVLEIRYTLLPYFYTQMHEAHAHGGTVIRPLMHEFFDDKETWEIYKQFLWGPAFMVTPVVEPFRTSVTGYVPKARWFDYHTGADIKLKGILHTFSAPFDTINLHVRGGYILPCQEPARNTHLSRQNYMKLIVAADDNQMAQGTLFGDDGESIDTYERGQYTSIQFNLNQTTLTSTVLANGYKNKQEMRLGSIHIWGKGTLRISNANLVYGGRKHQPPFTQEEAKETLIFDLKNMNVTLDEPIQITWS

Structure (SMILES) | Inhibition (%) (Sucrase) | sucrase activity inhibiting capacity (Sucrase) | LD₅₀(reliable limit) (male ICR mice)
O=C(O[C@@H]1Cc2c(O)cc(O)cc2O[C@@H]1c1ccc(O)c(O)c1)c1cc(O)c(O)c(O)c1 [Epicatechin Gallate, (-) Epicatechin Gallate] | 62.5% |  | 
O=C(O[C@@H]1Cc2c(O)cc(O)cc2O[C@@H]1c1cc(O)c(O)c(O)c1)c1cc(O)c(O)c(O)c1 [Epigallocatechin Gallate, (-) Epigallocatechin Gallate] | 78.8% |  | 150 mg/kg
O=C(O[C@@H]1Cc2c(O)cc(O)cc2O[C@@H]1c1cc(O)c(=O)c2c(O)c(O)cc([C@H]3Oc4cc(O)cc(O)c4C[C@H]3O)c2c1)c1cc(O)c(O)c(O)c1 [Theaflavin Monogallate A] | 45.9% |  | 
O=c1c(O)cc([C@H]2Oc3cc(O)cc(O)c3C[C@H]2O)cc2c([C@H]3Oc4cc(O)cc(O)c4C[C@H]3O)cc(O)c(O)c12 [Free Theaflavin] | 6.8% | only slight | 
O=C(O[C@@H]1Cc2c(O)cc(O)cc2O[C@@H]1c1cc(O)c(=O)c2c(O)c(O)cc([C@H]3Oc4cc(O)cc(O)c4C[C@H]3OC(=O)c3cc(O)c(O)c(O)c3)c2c1)c1cc(O)c(O)c(O)c1 [Theaflavin Digallate] | 95.9% |  | 
Oc1cc(O)c2c(c1)O[C@H](c1cc(O)c(O)c(O)c1)[C@H](O)C2 [Epigallocatechin, (-) Epigallocatechin] | 17.3% | only slight | 

Continued, in another order:

Inhibition (%) (Sucrase) | sucrase activity inhibiting capacity (Sucrase) | Structure (SMILES) | LD₅₀(reliable limit) (male ICR mice)
13.7% |  | Oc1cc(O)c2c(c1)O[C@H](c1ccc(O)c(O)c1)[C@@H](O)C2 [(+)Catechin, reference compound] | 
6.7% |  | O=C(O)c1cc(O)c(O)c(O)c1 [Gallic Acid, reference compound] | 
59.5% |  | O=C(O[C@@H]1Cc2c(O)cc(O)cc2O[C@@H]1c1cc(O)c(O)c2c(=O)c(O)cc([C@H]3Oc4cc(O)cc(O)c4C[C@H]3O)cc12)c1cc(O)c(O)c(O)c1 [Theaflavin Monogallate B] | 
14.7% | only slight | Oc1cc(O)c2c(c1)O[C@H](c1ccc(O)c(O)c1)[C@H](O)C2 [Epicatechin, (-) Epicatechin] | 
